According to publication PMC6978363, “Chaperone mediated detection of small molecule target binding in cells” (Nature Communications, 2020):

Columns and labels:
Assay in all cases: biochemical
Settings in all cases: read-out: % Inhibition (at 10mM)
ZAP-70 = target: T1, ZAP-70 (Homo sapiens, UniProt P43403)
T1 construct: gene ZAP70

PKC_beta2 = target: T2, PKC_beta2 (Homo sapiens, UniProt P05771)
T2 construct: gene PRKCB; isoform beta 2

PIM1 = PIM1 (Homo sapiens, UniProt P11309)
MST4 = target: T3, MST4 (Homo sapiens, UniProt Q9P289)
T3 construct: gene STK26

MAPKAPK3 = MAPKAPK3 (Homo sapiens, UniProt Q16644)
EphB3 = EphB3 (Homo sapiens, UniProt P54753)
CLK2 = CLK2 (Homo sapiens, UniProt P49760)
ErbB4 = ErbB4 (Homo sapiens, UniProt Q15303)
Mer = target: T4, Mer (Homo sapiens, UniProt Q12866)
T4 construct: gene MERTK

p70S6K = target: T5, p70S6K (Homo sapiens, UniProt P23443)
T5 construct: gene RPS6KB1

DYRK4 = DYRK4 (Homo sapiens, UniProt Q9NR20)
PCTK2 = target: T6, PCTK2 (Homo sapiens, UniProt Q00537)
T6 construct: gene CDK17

PKD2 = target: T7, PKD2 (Homo sapiens, UniProt Q9BZL6)
T7 construct: gene PRKD2

PAK7 = target: T8, PAK7 (Homo sapiens, UniProt Q9P286)
T8 construct: gene PAK5

PRK1 = target: T9, PRK1 (Homo sapiens, UniProt Q16512)
T9 construct: gene PKN1

TXK = TXK (Homo sapiens, UniProt P42681)
MARK3 = MARK3 (Homo sapiens, UniProt P27448)
Syk = Syk (Homo sapiens, UniProt P43405)
SGK3 = SGK3 (Homo sapiens, UniProt Q96BR1)
Fgr = Fgr (Homo sapiens, UniProt P09769)
PAK1 = PAK1 (Homo sapiens, UniProt Q13153)
NEK6 = NEK6 (Homo sapiens, UniProt Q9HC98)
GSK3_alpha = target: T10, GSK3_alpha (Homo sapiens, UniProt P49840)
T10 construct: gene GSK3A

ACVR1B = ACVR1B (Homo sapiens, UniProt P36896)
JAK1 = JAK1 (Homo sapiens, UniProt P23458)
EphA8 = EphA8 (Homo sapiens, UniProt P29322)
MARK2 = MARK2 (Homo sapiens, UniProt Q7KZI7)
PAK6 = PAK6 (Homo sapiens, UniProt Q9NQU5)
CK1_alpha1L = target: T11, CK1_alpha1L (Homo sapiens, UniProt Q8N752)
T11 construct: gene CSNK1A1L

PDGFR_beta = target: T12, PDGFR_beta (Homo sapiens, UniProt P09619)
T12 construct: gene PDGFRB

CK1_gamma3 = target: T13, CK1_gamma3 (Homo sapiens, UniProt Q9Y6M4)
T13 construct: gene CSNK1G3

PKC_zeta = target: T14, PKC_zeta (Homo sapiens, UniProt Q05513)
T14 construct: gene PRKCZ

ITK = ITK (Homo sapiens, UniProt Q08881)
Flt3 = Flt3 (Homo sapiens, UniProt P36888)
FAK = target: T15, FAK (Homo sapiens, UniProt Q05397)
T15 construct: gene PTK2

CDK5/p25 = target: T16, CDK5/p25 (Homo sapiens, UniProt Q00535)
T16 construct: p25

AKT3 = AKT3 (Homo sapiens, UniProt Q9Y243)
Kit = Kit (Homo sapiens, UniProt P10721)

T3 sequence (Q9P289 whole entry): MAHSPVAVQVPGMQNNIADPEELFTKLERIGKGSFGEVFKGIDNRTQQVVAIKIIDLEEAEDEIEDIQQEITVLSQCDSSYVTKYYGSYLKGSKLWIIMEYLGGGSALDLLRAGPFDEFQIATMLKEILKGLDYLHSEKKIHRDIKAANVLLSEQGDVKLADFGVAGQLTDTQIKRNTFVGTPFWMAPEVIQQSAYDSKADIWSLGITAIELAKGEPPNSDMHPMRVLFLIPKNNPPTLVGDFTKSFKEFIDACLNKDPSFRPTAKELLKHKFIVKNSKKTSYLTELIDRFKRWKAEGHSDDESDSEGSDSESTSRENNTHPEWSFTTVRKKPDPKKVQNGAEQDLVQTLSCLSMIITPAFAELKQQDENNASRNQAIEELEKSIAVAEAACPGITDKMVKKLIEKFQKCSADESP
DYRK4, sequence (Q9NR20 whole entry): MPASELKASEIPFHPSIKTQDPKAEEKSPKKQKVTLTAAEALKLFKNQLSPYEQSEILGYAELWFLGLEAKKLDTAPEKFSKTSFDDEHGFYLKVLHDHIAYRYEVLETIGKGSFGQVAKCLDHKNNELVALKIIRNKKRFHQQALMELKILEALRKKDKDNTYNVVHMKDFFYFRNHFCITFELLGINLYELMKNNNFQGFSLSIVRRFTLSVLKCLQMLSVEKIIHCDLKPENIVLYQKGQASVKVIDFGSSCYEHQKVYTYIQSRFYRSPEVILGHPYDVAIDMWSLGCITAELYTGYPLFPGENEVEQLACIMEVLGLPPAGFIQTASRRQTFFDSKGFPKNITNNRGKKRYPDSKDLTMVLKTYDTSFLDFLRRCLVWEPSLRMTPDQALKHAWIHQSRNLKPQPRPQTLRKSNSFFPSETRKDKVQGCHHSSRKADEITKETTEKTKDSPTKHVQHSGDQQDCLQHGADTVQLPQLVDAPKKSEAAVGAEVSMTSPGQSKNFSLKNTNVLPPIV
EphA8, sequence (P29322 whole entry): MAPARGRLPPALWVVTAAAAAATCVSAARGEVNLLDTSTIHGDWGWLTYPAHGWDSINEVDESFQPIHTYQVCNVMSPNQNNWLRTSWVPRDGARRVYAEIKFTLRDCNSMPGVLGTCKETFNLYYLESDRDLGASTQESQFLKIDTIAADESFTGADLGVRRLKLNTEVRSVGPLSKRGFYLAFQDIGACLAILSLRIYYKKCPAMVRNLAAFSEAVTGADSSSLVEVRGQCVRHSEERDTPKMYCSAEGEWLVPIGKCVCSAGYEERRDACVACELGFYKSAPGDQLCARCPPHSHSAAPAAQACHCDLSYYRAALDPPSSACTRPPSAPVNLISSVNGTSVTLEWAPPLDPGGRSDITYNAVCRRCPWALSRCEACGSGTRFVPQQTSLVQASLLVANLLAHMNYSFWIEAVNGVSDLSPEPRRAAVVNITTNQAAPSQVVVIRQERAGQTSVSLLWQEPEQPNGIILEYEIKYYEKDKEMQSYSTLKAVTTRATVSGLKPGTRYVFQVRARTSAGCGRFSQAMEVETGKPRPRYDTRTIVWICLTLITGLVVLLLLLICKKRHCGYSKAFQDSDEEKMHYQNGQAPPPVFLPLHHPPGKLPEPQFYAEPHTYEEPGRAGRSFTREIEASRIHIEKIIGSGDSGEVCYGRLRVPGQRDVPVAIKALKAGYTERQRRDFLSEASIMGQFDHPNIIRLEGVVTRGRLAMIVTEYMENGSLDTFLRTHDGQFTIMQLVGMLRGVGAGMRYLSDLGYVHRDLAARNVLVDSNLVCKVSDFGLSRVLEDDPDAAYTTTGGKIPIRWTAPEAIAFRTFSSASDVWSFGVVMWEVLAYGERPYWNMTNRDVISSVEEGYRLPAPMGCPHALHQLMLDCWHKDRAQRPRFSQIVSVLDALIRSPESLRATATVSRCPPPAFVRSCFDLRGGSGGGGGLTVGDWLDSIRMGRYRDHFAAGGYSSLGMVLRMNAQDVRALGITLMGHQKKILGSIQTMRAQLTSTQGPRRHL
T2 sequence (P05771 whole entry, canonical isoform): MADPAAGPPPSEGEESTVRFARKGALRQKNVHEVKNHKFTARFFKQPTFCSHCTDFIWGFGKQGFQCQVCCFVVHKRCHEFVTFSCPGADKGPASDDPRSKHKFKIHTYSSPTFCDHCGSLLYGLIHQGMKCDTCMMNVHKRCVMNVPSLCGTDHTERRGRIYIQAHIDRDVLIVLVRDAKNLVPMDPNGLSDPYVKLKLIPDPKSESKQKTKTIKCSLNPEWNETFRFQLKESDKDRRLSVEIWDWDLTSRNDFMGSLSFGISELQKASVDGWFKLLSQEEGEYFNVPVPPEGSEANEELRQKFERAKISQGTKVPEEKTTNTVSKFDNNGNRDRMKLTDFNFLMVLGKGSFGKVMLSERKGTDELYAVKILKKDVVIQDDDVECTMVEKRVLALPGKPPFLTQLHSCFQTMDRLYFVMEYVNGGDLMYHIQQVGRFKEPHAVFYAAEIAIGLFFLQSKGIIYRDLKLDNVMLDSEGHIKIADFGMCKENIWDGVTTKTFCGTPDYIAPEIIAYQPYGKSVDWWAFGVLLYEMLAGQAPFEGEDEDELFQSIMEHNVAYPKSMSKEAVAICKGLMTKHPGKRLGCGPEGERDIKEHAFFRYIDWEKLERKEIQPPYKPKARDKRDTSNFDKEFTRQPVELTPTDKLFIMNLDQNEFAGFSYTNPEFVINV
MARK3, sequence (P27448 whole entry): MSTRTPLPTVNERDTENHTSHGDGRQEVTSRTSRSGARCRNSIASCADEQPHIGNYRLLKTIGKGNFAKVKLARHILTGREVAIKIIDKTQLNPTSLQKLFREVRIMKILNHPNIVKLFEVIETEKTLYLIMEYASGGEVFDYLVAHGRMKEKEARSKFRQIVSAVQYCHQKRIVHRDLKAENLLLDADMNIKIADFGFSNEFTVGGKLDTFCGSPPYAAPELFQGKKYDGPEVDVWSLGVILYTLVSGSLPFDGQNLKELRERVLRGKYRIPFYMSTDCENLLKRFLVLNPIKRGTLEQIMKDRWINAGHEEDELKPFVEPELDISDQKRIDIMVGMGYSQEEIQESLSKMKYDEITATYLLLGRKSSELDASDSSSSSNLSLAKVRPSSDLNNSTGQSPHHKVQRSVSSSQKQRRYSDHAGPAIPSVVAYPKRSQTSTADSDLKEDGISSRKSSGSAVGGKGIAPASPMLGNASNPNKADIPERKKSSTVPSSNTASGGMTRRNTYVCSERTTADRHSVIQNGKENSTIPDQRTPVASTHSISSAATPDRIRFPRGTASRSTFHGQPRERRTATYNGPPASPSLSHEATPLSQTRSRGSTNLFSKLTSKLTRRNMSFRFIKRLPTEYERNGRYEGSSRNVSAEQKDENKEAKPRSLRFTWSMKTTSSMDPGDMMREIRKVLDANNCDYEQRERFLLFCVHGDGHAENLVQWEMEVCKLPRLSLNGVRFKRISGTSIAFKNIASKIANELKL
ACVR1B, sequence (P36896 whole entry): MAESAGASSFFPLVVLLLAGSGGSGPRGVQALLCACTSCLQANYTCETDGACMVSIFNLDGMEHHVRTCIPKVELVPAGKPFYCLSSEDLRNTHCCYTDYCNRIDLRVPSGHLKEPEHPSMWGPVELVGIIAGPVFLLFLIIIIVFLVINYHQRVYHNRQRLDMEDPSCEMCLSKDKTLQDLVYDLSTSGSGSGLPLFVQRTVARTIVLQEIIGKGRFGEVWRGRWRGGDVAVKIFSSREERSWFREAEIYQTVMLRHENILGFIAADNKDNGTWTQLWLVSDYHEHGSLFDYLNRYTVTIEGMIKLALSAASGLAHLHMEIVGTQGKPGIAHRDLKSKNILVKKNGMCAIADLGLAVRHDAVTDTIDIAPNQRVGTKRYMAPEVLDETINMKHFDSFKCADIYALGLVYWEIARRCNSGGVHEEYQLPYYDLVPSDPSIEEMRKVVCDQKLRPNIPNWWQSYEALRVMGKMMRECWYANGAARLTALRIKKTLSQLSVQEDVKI
T12 sequence (P09619 whole entry): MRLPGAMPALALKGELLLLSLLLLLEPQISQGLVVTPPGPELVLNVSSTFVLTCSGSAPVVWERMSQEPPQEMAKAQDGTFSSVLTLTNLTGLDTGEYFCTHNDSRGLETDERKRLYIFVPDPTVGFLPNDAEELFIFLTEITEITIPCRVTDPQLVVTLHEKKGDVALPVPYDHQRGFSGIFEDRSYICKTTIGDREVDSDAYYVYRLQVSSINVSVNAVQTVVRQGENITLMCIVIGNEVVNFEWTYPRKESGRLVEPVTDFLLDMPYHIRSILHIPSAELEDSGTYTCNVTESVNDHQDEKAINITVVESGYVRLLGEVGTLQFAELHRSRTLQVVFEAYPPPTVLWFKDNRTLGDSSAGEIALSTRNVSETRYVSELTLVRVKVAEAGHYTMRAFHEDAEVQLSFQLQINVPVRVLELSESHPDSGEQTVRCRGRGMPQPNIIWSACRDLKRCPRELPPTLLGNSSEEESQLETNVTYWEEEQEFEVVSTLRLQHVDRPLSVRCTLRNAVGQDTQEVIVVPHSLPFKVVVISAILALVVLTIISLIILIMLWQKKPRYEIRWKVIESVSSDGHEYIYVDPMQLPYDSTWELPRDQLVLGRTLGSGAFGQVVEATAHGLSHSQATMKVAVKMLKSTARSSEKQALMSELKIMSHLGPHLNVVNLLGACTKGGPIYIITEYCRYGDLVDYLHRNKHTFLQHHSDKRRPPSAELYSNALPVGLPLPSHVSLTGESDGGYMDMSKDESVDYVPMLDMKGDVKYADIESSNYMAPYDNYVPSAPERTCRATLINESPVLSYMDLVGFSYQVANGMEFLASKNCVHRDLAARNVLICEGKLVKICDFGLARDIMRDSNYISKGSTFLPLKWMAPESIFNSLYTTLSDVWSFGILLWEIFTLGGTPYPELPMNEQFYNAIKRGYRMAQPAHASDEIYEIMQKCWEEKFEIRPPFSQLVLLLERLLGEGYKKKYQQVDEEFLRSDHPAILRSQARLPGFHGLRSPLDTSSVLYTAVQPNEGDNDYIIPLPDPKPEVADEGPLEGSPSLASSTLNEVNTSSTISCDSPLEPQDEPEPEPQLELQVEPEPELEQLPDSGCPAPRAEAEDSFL

## CC(C)(O)CC(=O)NCCn1ccc2ncnc(Nc3ccc(Oc4cccc(C(F)(F)F)c4)c(Cl)c3)c21 [TAK-285]
ZAP-70
  inhibition: 2%
PKC_beta2
  inhibition: 9.5%
PIM1
  inhibition: 5.5%
MST4
  inhibition: -2.5%
MAPKAPK3
  inhibition: 14.5%
EphB3
  inhibition: 6.5%
CLK2
  inhibition: 18.5%
ErbB4
  inhibition: 98.5%
Mer
  inhibition: 49.5%
p70S6K
  inhibition: 7.5%
DYRK4
  inhibition: 1.5%
PCTK2
  inhibition: 0.5%
PKD2
  inhibition: 80.5%
PAK7
  inhibition: 5.5%
PRK1
  inhibition: -7%
TXK
  inhibition: 15%
MARK3
  inhibition: 6.5%
Syk
  inhibition: 3.5%
SGK3
  inhibition: 2%
Fgr
  inhibition: 65%
PAK1
  inhibition: 16%
NEK6
  inhibition: 6%
GSK3_alpha
  inhibition: 10%
ACVR1B
  inhibition: -5%
JAK1
  inhibition: 0%
EphA8
  inhibition: 8%
MARK2
  inhibition: 5.5%
PAK6
  inhibition: 5.5%
CK1_alpha1L
  inhibition: 3%
PDGFR_beta
  inhibition: -4%
CK1_gamma3
  inhibition: 2.5%
PKC_zeta
  inhibition: 8.5%
ITK
  inhibition: 1%
Flt3
  inhibition: 27%
FAK
  inhibition: 7.5%
CDK5/p25
  inhibition: 8%
AKT3
  inhibition: 5%
Kit
  inhibition: -1.5%
